Results taken from patent publication US20050142534A1, “Methods and compositions related to a matrix chip” (priority 2003, published 2005).

Columns and labels:
Assay type in all cases: cell-based
tumor nest = test: Perfusion of tumor nests by neutral fluorescent dyes and dextran conjugates; details: microinjected into a sinusoid of a tumor nest; fluorescence microscopy
From the text: Invasive tumor cells grown on thick layers of extracellular matrix protein form tumor nests in vitro and can be used as model systems for the evaluation of the efficacy of anti-cancer drugs against similar structures in vivo. Fluorescence microscopy images of a fluorescent dye Texas Red microinjected into a sinusoid of a tumor nest will typically show the movement of the dye into the perfusion channels between clumps of tumor cells in the tumor nest. […] This same pattern of perfusion is evident when neutral fluorescent dyes are applied to tissues or layers of matrix proteins containing tumor nests rather than being injected into the nests.

[1] = system: normal cells and abnormal cells; test: Inverted slide-based nuclease digestion test with thiol reagent; details: thiol reagent added to the treatment solution
Method: Certain embodiments of the invention include a slide-based test. One example of a slide based test includes obtaining a test sample, (e.g., scraping cells off of their culture plates); suspending the sample in phosphate buffered saline (PBS); administering a drop of the cell suspension on a laminin coated slide. The sample administered to the coated slide is allowed to air dry (about 15 minutes). The dried slide is subjected to digestion with ALU (about 15 minutes). After digestion the slide is stained with ethidium bromide (1 minute) and imaged under fluorescence. Aside from being fast, this method is an improvement on standard “smear” methods (like Pap tests) in that it is insensitive to the air-drying artifacts that cause major problems with the standard methods and necessitate using preservatives and fixatives. An alternative sampling technique includes depositing cells by contacting the slide with a tissue block.
Thus, the result of the method is inverted. Inversion of the test can be produced by adding a thiol reagent such as DTT to the treatment solution.

[2] = system: invasive tumor cells forming tumor nests; test: Labeling of nuclei of invasive tumor cells in tumor nests on thick matrix by DNA-binding agents; details: even after prolonged exposure
From the text: Rather, they form clusters or sheets of cells with no evidence of the formation of perfusion channels. […] Invasive tumor cells grown in vitro on thick matrix and stained by the addition of bisbenzimide to the culture medium show staining restricted to the nuclei of the cells on the peripheries of the individual cell clusters forming the tumor nest. These and other similar experiments reveal that polar agents such as bisbenzimide and doxorubicin are systematically excluded from the cells comprising tumor nests while these cells are accessible to neutral molecules of similar molecular weights.

[3] = system: tumor cells grown on thin matrix; test: Labeling of nuclei of tumor cells grown on thin matrix by DNA-binding agents
From the text: Rather, they form clusters or sheets of cells with no evidence of the formation of perfusion channels. […] […] These and other similar experiments reveal that polar agents such as bisbenzimide and doxorubicin are systematically excluded from the cells comprising tumor nests while these cells are accessible to neutral molecules of similar molecular weights.

[4] = system: normal vasculogenic endothelial cells; test: Formation of vasculogenic cords by normal endothelial cells on matrix; details: normal endothelial cells on thin and thick matrix; agent added to the culture medium
From the text: With the specific exception of normal vasculogenic endothelial cells, normal cells and cancer cells of low invasive potential form clusters containing small numbers of cells when grown to less than confluent density on serum proteins absorbed to a solid support or on layers of extracellular matrix ranging from less than 50 microns to over 1000 microns in thickness. […] Normal vasculogenic […] cells grown to confluent density on absorbed serum proteins form characteristic “cobblestone” monolayers. These normal endothelial cells form distinctive cord-like structures when grown on thin matrix and networks of these cords when grown on thick matrix. The formation of these vasculogenic cords, which are known to be precursors to the formation of blood vessels, is prevented by the addition of anti-angiogenic agents such as the drug TNP-470 (a derivative of flimagillin) to the culture medium.

Molecule	labeling of nuclei [2]	labeling of nuclei [3]	also measured
Texas Red	–	–	movement of dye into perfusion channels of tumor nest (tumor nest): the tumor nest is permeated by the dye
O[C@@H](CS)[C@@H](O)CS [DTT]	–	–	effect on result of nuclease digestion test [1]: normal cells remain intact and the abnormal cells are degraded
CN1CCN(c2ccc3[nH]c(-c4ccc5[nH]c(-c6ccc(O)cc6)nc5c4)nc3c2)CC1 [bisbenzimide]	only the nuclei of cells on the peripheries of the tumor cell clusters forming the nests are labeled	rapidly and efficiently labeled	–
CO[C@@H]1[C@H](OC(=O)NC(=O)CCl)CC[C@]2(CO2)[C@H]1[C@@]1(C)O[C@@H]1CC=C(C)C [TNP-470]	–	–	formation of vasculogenic cords [4]: prevented
COc1cccc2c1C(=O)c1c(O)c3c(c(O)c1C2=O)C[C@@](O)(C(=O)CO)C[C@@H]3O[C@H]1C[C@H](N)[C@H](O)[C@H](C)O1 [doxorubicin]	only the nuclei of cells on the peripheries of the tumor cell clusters forming the nests are labeled	rapidly and efficiently labeled	–
